Measurements from patent US20170196859A1, “PHARMACEUTICAL COMPOSITION COMPRISING PYRAZINE CARBOXAMIDE COMPOUND AS ACTIVE INGREDIENT” (Astellas Pharma Inc., priority 2014, published 2017).

Legend:
[1] = tested on: human acute myeloid leukemia cell line KG-1 cells; assay: Proliferation inhibition, KG-1 cells (CellTiter-Glo); assay type: cell-based; conditions: KG-1, 72 h, 3 days culture
Procedure: (§1) KG-1 is a cell line originated from human acute myeloid leukemia and the BTK expression has been confirmed (J. Immunol. 1994; 152(2):557-565). The human acute myeloid leukemia cell line KG-1 cells (American Type Culture Collection, CCL-246) cultured in RPMI1640 medium (Sigma) containing 10% bovine serum were seeded into 96 well plates. On the next day, DMSO solutions of the test compound B at final concentrations from 1 nM to 10 μM or only DMSO (DMSO group) were added thereto to culture the cells at 37° C. in 5% CO2 for 3 days. Thereafter, the cell number was measured using a cell counting reagent (CellTiter-Glo (registered trademark) Luminescent Cell Viability Assay (Promega)). The cell proliferation inhibition rate was calculated as the measured value in the DMSO group set as 0% inhibition and the measured value in the well only with the medium on which the cells have not been seeded set as 100% inhibition.

[2] = tested on: human anaplastic large cell lymphoma cell line KARPAS-299 cells; assay: Proliferation inhibition, KARPAS-299 cells (CellTiter-Glo); assay type: cell-based; conditions: KARPAS-299, 72 h, 3 days culture
Procedure: KARPAS-299 is a cell line originated from human anaplastic large cell lymphoma and the activation of JAK 3 has been confirmed (Oncogene. 2002; 21:1038-1047). The human anaplastic large cell lymphoma cell line KARPAS-299 cells (DSMZ, ACC31) cultured in RPMI1640 medium (Sigma) containing a 10% bovine serum were seeded into 96 well plates. On the same day, DMSO solution of the test compound B at a final concentrations from 1 nM to 10 μM or only DMSO (DMSO group) were added thereto to culture the cells at 37° C. in 5% CO2 for 3 days. Thereafter, the cell number was measured using a cell counting reagent (CellTiter-Glo (registered trademark) Luminescent Cell Viability Assay (Promega)). The cell proliferation inhibition rate was calculated as the measured value in the DMSO group set as 0% inhibition and the measured value in the well only with the medium on which the cells have not been seeded set as 100% inhibition.

[3] = tested on: human anaplastic large cell lymphoma cell line SU-DHL-1 cells; assay: Proliferation inhibition, SU-DHL-1 cells (CellTiter-Glo); assay type: cell-based; conditions: SU-DHL-1, 96 h, 4 days culture
Procedure: SU-DHL-1 is a cell line originated from human anaplastic large cell lymphoma and the activation of JAK 3 has been confirmed (Leukemia. 2014; 28:941-944). The human anaplastic large cell lymphoma cell line SU-DHL-1 cells (American Type Culture Collection, CRL-2955) cultured in RPMI1640 medium (Sigma) containing 10% bovine serum were seeded into 96 well plates. On the same day, DMSO solutions of the test compound B at a final concentrations from 1 nM to 10 μM or only DMSO (DMSO group) was added thereto to culture the cells at 37° C. in 5% CO2 for 4 days. Thereafter, the cell number was measured using a cell counting reagent (CellTiter-Glo (registered trademark) Luminescent Cell Viability Assay (Promega)). The cell proliferation inhibition rate was calculated as the measured value in the DMSO group set as 0% inhibition and the measured value in the well only with the medium on which the cells have not been seeded set as 100% inhibition.

[4] = tested on: OCI-Ly10 subcutaneous xenograft; assay: Anti-tumor evaluation in OCI-Ly10 subcutaneous xenograft mouse model; assay type: in vivo; conditions: for tumor volume after 14 days: control 188 to 520 mm^3
Procedure: The human diffuse large B-cell lymphoma cell line OCI-Ly10 cells were subcutaneously implanted to a dorsal part of an immunodeficient mouse (NOD.CB 17-Prkdc scid/J, male, 4-week-old (Charles River Laboratories Japan, Inc.)) to prepare an OCI-Ly10 subcutaneous xenograft mouse model. To mice which were divided based on the tumor volumes, 0.5% methylcellulose (control group: 10 mL/kg/day, QD, po (n=4)) or the test compound B (test compound B-administered group: 30 or 100 mg/kg/day in 0.5% methylcellulose suspension, QD, po (n=4)) were administered. The change in the tumor volume was evaluated over time.

[5] = tested on: human acute myeloid leukemia cell line MV4-11 cells; assay: Proliferation inhibition, MV4-11 cells (CellTiter-Glo); assay type: cell-based; conditions: MV4-11, 72 h, 3 days culture
Procedure: as §1, with “MV4-11” for “KG-1”, “(Mol. Cell Proteomics. 2009; 8(7):1751-1764).” for “(J. Immunol. 1994; 152(2):557-565).”, “CRL-9591)” for “CCL-246)”, “an Iscove's Modified Dulbecco's Medium” for “RPMI1640 medium”, “contain […]” for “containing”, “solution” for “solutions”

[6] = tested on: human acute T cell lymphoma cell line Jurkat 6.1E cells; assay: Proliferation inhibition, Jurkat 6.1E cells (CellTiter-Glo); assay type: cell-based; conditions: 96 h, 4 days culture
Procedure: Jurkat 6.1E is a cell line originated from human acute T cell lymphoma and the ITK expression has been confirmed (Mol. Pharmacol. 2012; 82:938-947). The human acute T cell lymphoma cell line Jurkat 6.1E cells (European Collection of Cell Cultures, 88042803) cultured in RPMI1640 medium (Sigma) containing 10% bovine serum were seeded into 96 well plates. On the same day, DMSO solutions of the test compound B at a final concentrations from 1 nM to 10 μM or only DMSO (DMSO group) were added thereto to culture the cells at 37° C. in 5% CO2 for 4 days. Thereafter, the cell number was measured using a cell counting reagent (CellTiter-Glo (registered trademark) Luminescent Cell Viability Assay (Promega)). The cell proliferation inhibition rate was calculated as the measured value in the DMSO group set as 0% inhibition and the measured value in the well only with the medium on which the cells have not been inoculated set 100% inhibition.

- IC50 [1]: 38 nM
- IC50 [2]: 250 nM
- IC50 [3]: 120 nM
- IC50 [5]: 10 nM
- IC50 [6]: 940 nM
Compound: C=CC(=O)N1CC[C@@H](Oc2nc(Nc3ccc(N4CCC(N5CCN(C)CC5)CC4)cc3)c(C(N)=O)nc2CC)C1 [test compound B, 5-{[(3R)-1-acryloylpyrrolidin-3-yl]oxy}-6-ethyl-3-({4-[4-(4-methylpiperazin-1-yl)piperidin-1-yl]phenyl}amino)pyrazine-2-carboxamide monomethanesulfonate]
- tumor volume after 14 days ([4]; 30 mg/kg/day QD po, 190 mm^3 at start of administration): 50 mm^3
- tumor volume after 14 days ([4]; 100 mg/kg/day QD po, 184 mm^3 at start of administration): 22 mm^3
- antitumor activity in OCI-Ly10 xenograft mouse model ([4]; summary statement, 30 and 100 mg/kg/day): remarkable antitumor activity with regression in a dose-dependent manner
